Assay results as given in patent US9976170B2, “Method for evaluating bacterial cell wall integrity” (UNIVERSIDAD AUTONOMA DE MADRID, priority 2011, dated 2018).
Converted amounts (≈) assume the structure as drawn.

Experiments:
Assay type in all cases: cell-based
[1] = system: Enterococcus faecalis, ampicillin-sensitive and benzylpenicillin-resistant strain; experiment: MIC by microdilution and/or E-test
Excerpt: (§1) The strains and the antibiotics used were: • Gram+ • Enterococcus faecalis.
(§2) The doses of antibiotic applied were 0, the MIC determined in the Microbiology Laboratory by means of the microdilution and/or E-test technique, and those of the cutoff points of sensitivity and resistance indicated by the Clinical and Laboratory Standards Institute (CLSI) for each strain. A dose 10 times higher than the MIC was also used.

[2] = system: Enterococcus faecium, ampicillin- and benzylpenicillin-resistant strain; experiment: MIC by microdilution and/or E-test
Excerpt: as §1, §2

[3] = system: Enterococcus faecalis, ampicillin-sensitive and benzylpenicillin-resistant strain; experiment: technique for evaluating cell wall integrity (lysis solution, nucleoid release, fluorescence microscopy); details: 60 minutes
Description: (§3) Different bacterial strains grown on a dish with Mueller-Hinton medium for 24 hours were subsequently exposed to a β-lactam antibiotic for 60 minutes in Mueller-Hinton liquid medium at 37° C., under stirring, and were finally processed by means of the technique for evaluating cell wall integrity according to the present invention.
as §2

[4] = system: Enterococcus faecium, ampicillin- and benzylpenicillin-resistant strain; experiment: as above; details: 320 μg/mL, 60 minutes
Description: as §3, §2

[5] = system: Escherichia coli, ampicillin- and ceftazidime-resistant strain; experiment: as above; details: 60 minutes
Description: as §3, §2

[6] = system: Escherichia coli, ceftazidime-sensitive strain with intermediate sensitivity to ampicillin; experiment: as above; details: 60 minutes
Description: as §3, §2

[7] = system: ampicillin-sensitive E. coli strain; experiment: incubation with increasing doses of antibiotic, lysed/non-lysed cells normalized by OD 600 (persisters); details: 60 minutes; for Lysed Cells Relative / Non-lysed Cells Relative: normalized by OD 600
[8] = system: ampicillin-sensitive E. coli strain; experiment: microgranular-fibrillar background in microgels stained with SYBR Gold (Example 8); details: 32 μg/mL, 60 minutes
Description: The experiment was conducted with a strain of ampicillin-sensitive E. coli and a strain of imipenem-sensitive A. baumanii. The first strain was incubated with 32 μg/mL ampicillin and the second strain with 0.76 μg/mL imipenem for 60 minutes in Mueller-Hinton liquid medium at 37° C. under stirring. After incubation, each culture with the cells was included in microgels on the slide. A microgel containing the antibiotic-free control culture, and 2 microgels containing the culture treated with antibiotic were placed on each slide. The size of each microgel corresponds to a 18×18 mm slide cover. The microgels on some slides were washed in a proteinase K buffer (1% SDS, 2 mM EDTA) and the microgels on other slides were washed in a DNAase I buffer (20 mM Tris-HCl, pH 8.3, 2 mM MgCl2). In the former, one of the microgels containing the culture treated with ampicillin was incubated only with a proteinase K buffer and the other microgel containing the culture treated with ampicillin was incubated with 5 μl of 2 mg/mL proteinase K, in the buffer thereof. In the slides washed with a DNAase I buffer, one of the microgels containing the culture treated with ampicillin was incubated only with a DNAase I buffer and the other microgel containing the culture treated with ampicillin was incubated with 5 μl of 2.5 U DNAase I, in the buffer thereof. […]

- MIC [1]: 4 µg/mL (≈ 11.4 µM)
- MIC [2]: > 32 µg/mL
SMILES: CC1(C)S[C@@H]2[C@H](NC(=O)[C@H](N)c3ccccc3)C(=O)N2[C@H]1C(=O)O [ampicillin]
- background of extracellular DNA fragments ([3]; 4 μg/mL (MIC)): subtle background
- cells lysed with fragmented DNA ([3]; 4 μg/mL (MIC)): 12%
- heavily lysed cells ([3]; 4 μg/mL (MIC)): 35%
- moderately lysed cells ([3]; 4 μg/mL (MIC)): 25%
- non-lysed cells ([3]; 4 μg/mL (MIC)): 28%
- background of extracellular DNA fragments ([3]; 40 μg/mL): very faint
- cells lysed with fragmented DNA nucleoid ([3]; 40 μg/mL): 2%
- cells with a large lysis halo ([3]; 40 μg/mL): 20%
- cells with a small halo ([3]; 40 μg/mL): 15%
- non-lysed cells ([3]; 40 μg/mL): 63%
- background of extracellular DNA fragments [4]: subtle background
- cells with a small halo [4]: 2%
- heavily lysed cells [4]: 7.5%
- lysed cells with nucleoid with fragmented DNA [4]: 1%
- non-lysed cells [4]: 89%
- background of extracellular DNA fragments ([5]; 256 μg/mL): without background
- cells lysed with nucleoid with fragmented DNA ([5]; 256 μg/mL): 1%
- lysed cells ([5]; 256 μg/mL): 0.5%
- background of extracellular DNA fragments ([5]; 2,560 μg/mL): subtle background
- cells lysed with nucleoid with fragmented DNA ([5]; 2,560 μg/mL): 1.5%
- empty capsules ([5]; 2,560 μg/mL): 4%
- heavily lysed cells ([5]; 2,560 μg/mL): 13%
- moderately lysed cells ([5]; 2,560 μg/mL): 5%
- background of extracellular DNA fragments ([6]; 8 μg/mL): extensive background
- cells lysed with nucleoid with fragmented DNA ([6]; 8 μg/mL): 9%
- heavily lysed cells ([6]; 8 μg/mL): 55%
- empty capsules ([6]; 16 μg/mL (MIC)): 22.6
- lysed cells with a large halo ([6]; 16 μg/mL (MIC)): 60.4%
- lysed cells with nucleoid with fragmented DNA ([6]; 16 μg/mL (MIC)): 5.7%
- non-lysed cells ([6]; 16 μg/mL (MIC)): 11.3%
- cells with a large halo ([6]; 20 μg/mL): 47.3%
- empty capsules ([6]; 20 μg/mL): 31.2%
- lysed cells with nucleoid with fragmented DNA ([6]; 20 μg/mL): 8.6%
- non-lysed cells ([6]; 20 μg/mL): 12.9%
- empty capsules ([6]; 32 and 160 μg/mL): 54%
- Lysed Cells % ([7]; dose 2 μg/mL): 90.3%
- Non-lysed Cells % ([7]; dose 2 μg/mL): 9.7%
- OD600 (ODinitial = 0.1) ([7]; dose 2 μg/mL): 0.323
- RELATIVE OD600 % ([7]; dose 2 μg/mL): 77.6%
- Lysed Cells Relative ([7]; dose 2 μg/mL): 70.1
- Non-lysed Cells Relative ([7]; dose 2 μg/mL): 7.5
- Lysed Cells % ([7]; dose 8 μg/mL): 70.6%
- Non-lysed Cells % ([7]; dose 8 μg/mL): 29.3%
- OD600 (ODinitial = 0.1) ([7]; dose 8 μg/mL): 0.120
- RELATIVE OD600 % ([7]; dose 8 μg/mL): 28.8%
- Lysed Cells Relative ([7]; dose 8 μg/mL): 20.4
- Non-lysed Cells Relative ([7]; dose 8 μg/mL): 8.5
- Lysed Cells % ([7]; dose 16 μg/mL): 37.5%
- Non-lysed Cells % ([7]; dose 16 μg/mL): 62.5%
- OD600 (ODinitial = 0.1) ([7]; dose 16 μg/mL): 0.050
- RELATIVE OD600 % ([7]; dose 16 μg/mL): 12.0%
- Lysed Cells Relative ([7]; dose 16 μg/mL): 4.5
- Non-lysed Cells Relative ([7]; dose 16 μg/mL): 7.5
- Lysed Cells % ([7]; dose 32 μg/mL): 22.5%
- Non-lysed Cells % ([7]; dose 32 μg/mL): 77.5%
- OD600 (ODinitial = 0.1) ([7]; dose 32 μg/mL): 0.027
- RELATIVE OD600 % ([7]; dose 32 μg/mL): 6.5%
- Lysed Cells Relative ([7]; dose 32 μg/mL): 1.5
- Non-lysed Cells Relative ([7]; dose 32 μg/mL): 5.0
- Lysed Cells % ([7]; dose 160 μg/mL): 15.0%
- Non-lysed Cells % ([7]; dose 160 μg/mL): 85.0%
- OD600 (ODinitial = 0.1) ([7]; dose 160 μg/mL): 0.024
- RELATIVE OD600 % ([7]; dose 160 μg/mL): 5.8%
- Lysed Cells Relative ([7]; dose 160 μg/mL): 0.9
- Non-lysed Cells Relative ([7]; dose 160 μg/mL): 4.9
- relative proportion of non-lysed cells ([7]; over all increasing doses, according to relative OD 600): 5-8.5
- microgranular-fibrillar background in the preparation [8]: showed the background
